In patent publication US10829501B2 (BRISTOL-MYERS SQUIBB COMPANY, priority 2016, dated 2020):
Counter-ions that a name gives are not always drawn.

These compounds were tested against ROCK2 (Homo sapiens, UniProt O75116) (assay: ROCK2 kinase inhibition assay (LABCHIP 3000 Reader, FITC peptide substrate)). Conditions: not given.
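Note: rho kinase reaction read by separating phosphorylated from unphosphorylated peptide on chip, with inhibition of kinase activity computed per concentration across a dose-response series.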

ROCK2, sequence (O75116 whole entry, species assumed): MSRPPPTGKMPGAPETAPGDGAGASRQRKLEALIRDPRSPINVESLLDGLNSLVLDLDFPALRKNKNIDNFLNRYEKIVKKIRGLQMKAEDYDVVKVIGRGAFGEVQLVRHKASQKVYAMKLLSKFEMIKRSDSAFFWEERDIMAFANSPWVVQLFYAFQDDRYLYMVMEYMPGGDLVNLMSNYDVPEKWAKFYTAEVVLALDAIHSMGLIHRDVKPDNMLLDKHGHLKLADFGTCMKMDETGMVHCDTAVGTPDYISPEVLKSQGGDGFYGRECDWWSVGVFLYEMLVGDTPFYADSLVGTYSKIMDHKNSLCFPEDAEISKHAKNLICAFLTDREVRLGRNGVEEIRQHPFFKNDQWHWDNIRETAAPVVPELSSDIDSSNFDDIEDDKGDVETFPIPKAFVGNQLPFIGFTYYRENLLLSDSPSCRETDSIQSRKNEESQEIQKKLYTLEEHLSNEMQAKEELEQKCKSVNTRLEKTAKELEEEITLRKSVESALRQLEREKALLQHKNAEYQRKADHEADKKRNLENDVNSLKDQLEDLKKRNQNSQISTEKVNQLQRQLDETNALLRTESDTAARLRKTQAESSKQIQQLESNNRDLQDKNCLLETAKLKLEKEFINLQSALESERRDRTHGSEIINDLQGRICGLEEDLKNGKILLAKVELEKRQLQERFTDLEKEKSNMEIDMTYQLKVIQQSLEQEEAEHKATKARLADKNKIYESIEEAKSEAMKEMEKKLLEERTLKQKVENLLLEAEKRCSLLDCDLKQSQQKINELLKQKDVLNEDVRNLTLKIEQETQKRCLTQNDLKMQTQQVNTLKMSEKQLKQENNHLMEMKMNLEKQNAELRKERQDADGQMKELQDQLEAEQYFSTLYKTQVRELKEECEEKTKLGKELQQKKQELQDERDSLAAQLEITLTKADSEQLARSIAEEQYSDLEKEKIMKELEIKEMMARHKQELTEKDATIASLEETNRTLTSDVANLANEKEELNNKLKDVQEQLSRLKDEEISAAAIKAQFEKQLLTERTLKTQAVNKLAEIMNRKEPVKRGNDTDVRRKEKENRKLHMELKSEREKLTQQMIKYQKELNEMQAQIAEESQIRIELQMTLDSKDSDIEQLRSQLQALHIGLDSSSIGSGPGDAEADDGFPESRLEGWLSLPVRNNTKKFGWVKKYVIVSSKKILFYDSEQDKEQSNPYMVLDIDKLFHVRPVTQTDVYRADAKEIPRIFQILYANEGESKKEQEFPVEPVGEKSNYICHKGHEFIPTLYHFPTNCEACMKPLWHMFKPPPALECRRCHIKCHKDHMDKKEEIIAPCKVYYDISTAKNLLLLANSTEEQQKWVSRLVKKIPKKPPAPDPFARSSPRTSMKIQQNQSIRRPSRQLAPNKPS

| Structure (SMILES) | IC50 [nM] |
| --- | --- |
| [H][C@]1(Oc2ncccc2C(N)=O)C[C@@]2(C[C@H](NC(=O)c3nnn4cc(Br)ccc34)C2)C1 (stereo partly drawn) [Example 368, 6-bromo-N-((aR)-6-((3-carbamoylpyridin-2-yl)oxy)spiro[3.3]heptan-2-yl)-[1,2,3]triazolo[1,5-a]pyridine-3-carboxamide] | 5 to 50 |
| NC(=O)c1cccnc1O[C@H]1CC2(C[C@H](NC(=O)c3cnc4cc(N5CC[C@H](F)C5)ccn34)C2)C1 (stereo partly drawn) [Example 322, N-((aR)-6-((3-carbamoylpyridin-2-yl)oxy)spiro[3.3]heptan-2-yl)-7-((S)-3-fluoropyrrolidin-1-yl)imidazo[1,2-a]pyridine-3-carboxamide] | < 5 |
| NC(=O)c1ccccc1O[C@H]1CC2(C[C@H](NC(=O)c3cnc4cc(OCCC(F)(F)F)ccn34)C2)C1 (stereo partly drawn) [Example 18, N-[(aR)-6-(2-carbamoylphenoxy)spiro[3.3]heptan-2-yl]-7-(3,3,3-trifluoropropoxy)imidazo [1,2-a]pyridine-3-carboxamdie] | < 5 |
| COCCOCCOc1ccc2c(C(=O)N[C@H]3CC4(C3)C[C@H](Oc3ncccc3C(N)=O)C4)cnn2c1 (stereo partly drawn) [Example 121, N-((aR)-6-((3-carbamoylpyridin-2-yl)oxy)spiro[3.3]heptan-2-yl)-6-(2-(2-methoxyethoxy)ethoxy)pyrazolo [1,5-a]pyridine-3-carboxamide, trifluoroacetate] | 5 to 50 |
| NC(=O)c1cccnc1OC1CC2(CC(NC(=O)c3cnc(-c4ccc(S(=O)(=O)C5CC5)cc4)s3)C2)C1 [Example 417, N-((aR)-6-((3-carbainoylpyridin-2-yl)oxy)spiro[3.3]heptan-2-yl)-2-(4-(cyclopropylsulfonyl)phenyl)thiazole-5-carboxamide, TFA] | 5 to 50 |
| CC(C)(O)COc1ccc2c(C(=O)NC3CC4(C3)CC(Oc3cc(-c5cccc(/C=C/C(=O)O)c5)ccc3C(N)=O)C4)cnn2c1 (stereo not drawn) [Example 291, (E)-3-(4′-carbamoyl-3′-((6-(6-(2-hydroxy-2-methylpropoxy)pyrazolo[1,5-a]pyridine-3-carboxamido)spiro[3.3]heptan-2-yl)oxy)-[1,1′-biphenyl]-3-yl)acrylic acid] | 5 to 50 |
| CC(C)(O)COc1ccc2c(C(=O)N[C@H]3CC4(C3)C[C@H](Oc3ncccc3C(N)=O)C4)nn(C(F)F)c2c1 (stereo partly drawn) [Example 108, N-((aR)-6-((3-carbamoylpyridin-2-yl)oxy)spiro[3.3]heptan-2-yl)-1-(difluoromethyl)-6-(2-hydroxy-2-methylpropoxy)-1H-indazole-3-carboxamide, trifluoroacetate] | < 5 |
| NC(=O)c1cccnc1O[C@H]1CC2(C[C@H](NC(=O)c3ccc(Cl)c(S(N)(=O)=O)c3)C2)C1 (stereo partly drawn) [Example 152, 2-(((aR)-6-(4-chloro-3-sulfamoylbenzamido)spiro[3.3]heptan-2-yl)oxy) nicotinamide, trifluoroacetate] | 5 to 50 |
| CCOC(=O)Cc1cccc(-c2ccc(C(N)=O)c(OC3CC4(CC(NC(=O)c5cnn6cc(OCC(C)(C)O)ccc56)C4)C3)c2)c1 (stereo not drawn) [Example 282, ethyl 2-(4′-carbamoyl-3′-((6-(6-(2-hydroxy-2-methylpropoxy)pyrazolo[1,5-a]pyridine-3-carboxamido)spiro[3.3]heptan-2-yl)oxy)-[1,1′-biphenyl]-3-yl)acetate] | 5 to 50 |
| [H][C@]1(Oc2ncccc2C(N)=O)C[C@@]2(C[C@H](NC(=O)c3cnc4c(C5CC5)c(OCC(C)(C)F)ccn34)C2)C1 (stereo partly drawn) [Example 47, N-((aR)-6-((3-carbamoylpyridin-2-yl)oxy)spiro[3.3]heptan-2-yl)-8-cyclopropyl-7-(2-fluoro-2-methylpropoxy)imidazo[1,2-a]pyridine-3-carboxamide] | 5 to 50 |
| NC(=O)c1cccnc1O[C@H]1CC2(C[C@H](NC(=O)c3cnc4cc(OC5CC(F)(F)C5)ccn34)C2)C1 (stereo partly drawn) [Example 360, N-((aR)-6-((3-carbamoylpyridin-2-yl)oxy)spiro[3.3]heptan-2-yl)-7-(3,3-difluorocyclobutoxy)imidazo[1,2-a]pyridine-3-carboxamide] | 5 to 50 |
| [H][C@]1(Oc2ncccc2C(N)=O)C[C@@]2(C[C@H](NC(=O)c3nn(C(C)(C)C(N)=O)c4cc(OCCC(F)(F)F)ccc34)C2)C1 (stereo partly drawn) [Example 410, 1-(1-amino-2-methyl-1-oxopropan-2-yl)-N-((aR)-6-((3-carbamoylpyridin-2-yl)oxy)spiro[3.3]heptan-2-yl)-6-(3,3,3-trifluoropropoxy)-1H-indazole-3-carboxamide, TFA] | 5 to 50 |
| Cn1cc(-c2ccn3c(C(=O)N[C@H]4CC5(C4)C[C@H](Oc4ccccc4C(N)=O)C5)cnc3c2)cn1 (stereo partly drawn) [Example 34, N-[(aR)-6-(2-carbamoylphenoxy)spiro [3.3]heptan-2-yl]-7-(1-methyl-1H-pyrazol-4-yl)imidazo [1,2-a]pyridine-3-carboxamide] | 5 to 50 |
| CC(C)(O)COc1ccc2c(C(=O)NC3CC4(C3)CC(Oc3cc(-c5ncccn5)ccc3C(N)=O)C4)cnn2c1 (stereo not drawn) [Example 222, N-(6-(2-carbamoyl-5-(pyrimidin-2-yl)phenoxy)spiro[3.3]heptan-2-yl)-6-(2-hydroxy-2-methylpropoxy)pyrazolo[1,5-a]pyridine-3-carboxamide] | 5 to 50 |
| NC(=O)c1ccccc1O[C@H]1CC2(C[C@H](NC(=O)c3cnn4cc(N5CCC(F)(F)C5)ccc34)C2)C1 (stereo partly drawn) [Example 23, N-[(aR)-6-(2-carbamoylphenoxy)spiro[3.3]heptan-2-yl]-6-(3,3-difluoropyrrolidin-1-yl)pyrazolo[1,5-a]pyridine-3-carboxamide] | < 5 |
| Cn1nc(C2CC2)cc1C(=O)N[C@H]1CC2(C1)C[C@H](Oc1ncccc1C(N)=O)C2 (stereo partly drawn) [Example 85, 2-((aR)-6-(3-cyclopropyl-1-methyl-1H-pyrazole-5-carboxamido)spiro[3.3]heptan-2-yl)oxy) nicotinamide, trifluoroacetate] | 50 to 250 |
| NC(=O)c1cccnc1OC1CC2(CC(NC(=O)c3cnn4cc(OC5CCOCC5)ccc34)C2)C1 (stereo not drawn) [Example 11, N-(6-((3-carbamoylpyridin-2-yl)oxy)spiro[3.3]heptan-2-yl)-6-((tetrahydro-2H-pyran-4-yl)oxy)pyrazolo[1,5-a]pyridine-3-carboxamide] | 5 to 50 |
| COc1ccc(C(N)=O)c(OC2CC3(CC(NC(=O)c4cnn5cc(OCC(C)(C)O)ccc45)C3)C2)c1 (stereo not drawn) [Example 210, N-(6-(2-carbamoyl-5-methoxyphenoxy)spiro[3.3]heptan-2-yl)-6-(2-hydroxy-2-methylpropoxy)pyrazolo[1,5-a]pyridine-3-carboxamide] | 5 to 50 |
| CC(C)(O)COc1ccc2c(C(=O)NC3CC4(C3)CC(Oc3cc(-c5cccc(COC(=O)NCCC(=O)OC(C)(C)C)c5)ccc3C(N)=O)C4)cnn2c1 (stereo not drawn) [Example 250, tert-butyl 3-((((4′-carbamoyl-3′-((6-(6-(2-hydroxy-2-methylpropoxy)pyrazolo[1,5-a]pyridine-3-carboxamido)spiro[3.3]heptan-2-yl)oxy)-[1,1′-biphenyl]-3-yl)methoxy)carbonyl)amino)propanoate] | 50 to 250 |
| CC(C)c1c(OCC(C)(C)O)ccc2c(C(=O)N[C@H]3CC4(C3)C[C@H](Oc3ncccc3C(N)=O)C4)cnn12 (stereo partly drawn) [Example 320, N-((aR)-6-((3-carbamoylpyridin-2-yl)oxy)spiro[3.3]heptan-2-yl)-6-(2-hydroxy-2-methylpropoxy)-7-isopropylpyrazolo[1,5-a]pyridine-3-carboxamide] | 5 to 50 |
| [H][C@]1(Oc2ncccc2C(N)=O)C[C@@]2(C[C@H](NC(=O)c3nn(C(C)(C)C#N)c4cc(-c5cnn(C(F)F)c5)ccc34)C2)C1 (stereo partly drawn) [Example 407, N-((aR)-6-((3-carbamoylpyridin-2-yl)oxy)spiro[3.3]heptan-2-yl)-1-(2-cyanopropan-2-yl)-6-(1-(difluoromethyl)-1H-pyrazol-4-yl)-1H-indazole-3-carboxamide, TFA] | < 5 |
| [H][C@]1(Oc2ncccc2C(N)=O)C[C@@]2(C[C@H](NC(=O)c3cc(-c4cnn(C(F)F)c4)cc(S(C)(=O)=O)c3)C2)C1 (stereo partly drawn) [Example 51] | 5 to 50 |
| NC(=O)c1cccnc1O[C@H]1CC2(C[C@H](NC(=O)c3cnc4cc(N5CCC(F)(F)CC5)ccn34)C2)C1 (stereo partly drawn) [Example 324, N-((aR)-6-((3-carbamoylpyridin-2-yl)oxy)spiro[3.3]heptan-2-yl)-7-(4,4-difluoropiperidin-1-yl)imidazo[1,2-a]pyridine-3-carboxamide] | < 5 |
| NC(=O)c1cccnc1OC1CC2(CC(NC(=O)N3CCc4ccccc43)C2)C1 (stereo not drawn) [Example 12, N-(6-((3-carbamoylpyridin-2-yl)oxy)spiro[3.3]heptan-2-yl)indoline-1-carboxamide] | 50 to 250 |
| NC(=O)c1cccnc1O[C@H]1CC2(C[C@H](NC(=O)c3ccccc3-c3nc4ccccc4[nH]3)C2)C1 (stereo partly drawn) [Example 140, 2-(((aR)-6-(2-(1H-benzo[d]imidazol-2-yl)benamido)spiro [3.3]heptan-2-yl)oxy) nicotinamide, trifluoroacetate] | 250 to 2500 |
| CC(C)(O)COc1ccc2c(C(=O)NC3CC4(C3)CC(Oc3cc(-n5ccnc5)ccc3C(N)=O)C4)cnn2c1 (stereo not drawn) [Example 221] | 50 to 250 |
| Cn1nc(C(C)(C)C)cc1C(=O)N[C@H]1CC2(C1)C[C@H](Oc1ncccc1C(N)=O)C2 (stereo partly drawn) [Example 77, 2-((aR)-6-(3-(tert-butyl)-1-methyl-1H-pyraole-5-carboxamido)spiro[3.3]heptan-2-yl)oxy) nicotinamide, trifluoroacetate] | 5 to 50 |
| NC(=O)c1cccnc1O[C@H]1CC2(C[C@H](NC(=O)c3cnc4cnccn34)C2)C1 (stereo partly drawn) [Example 345, N-((aR)-6-((3-carbamoylpyridin-2-yl)oxy)spiro[3.3]heptan-2-yl)imidazo[1,2-a]pyrazine-3-carboxamide] | 250 to 2500 |
| NC(=O)c1cccnc1OC1CC2(CC(NC(=O)c3cnn(-c4cccc(Cl)c4)c3)C2)C1 (stereo not drawn) [Example 394] | 5 to 50 |

Same assay, conditions: read-out: ROCK2 Activity (ROCK2 IC50); 5 μM ATP, 1.5 μM peptide substrate, pH 7.5

| Structure (SMILES) | IC50 [nM] |
| --- | --- |
| Cc1c(C(=O)NC2CC3(C2)CC(Oc2ncccc2C(N)=O)C3)cnn1-c1ccc(OC(F)(F)F)cc1 [Example 386, N-[(aR)2-[(6-{5-methyl-1-[4-(trifluoromethoxy)phenyl]-1H-pyrazole-4-amido}spiro[3.3]heptan-2-yl)oxy]pyridine-3-carboxamide 1 trifluoroacetic acid salt] | 5 to 50 |
